Assay: pKa value was determined
Format: physicochemical

pKa: 6.8
Structure (SMILES): COC(=O)C(Cc1ccc(O)cc1)NC(=O)CN(CCN(CC(=O)O)CC(=O)NC(Cc1ccc(O)cc1)C(=O)OC)CC(=O)O (stereo unspecified)
